This is an account of results in ChEMBL document CHEMBL1140557, “SAR studies of 1,5-diarylpyrazole-based CCK1 receptor antagonists” (Bioorg Med Chem Lett, 2007).

The nature of series [1]: Half life in rat. It counts as ADME, organism-based. To be noted: in vivo.
Series [2] in a line: Oral bioavailability in rat at 2 umol/kg. To be noted: in vivo. In kind it is ADME, organism-based.

`COc1ccc(-n2nc(C[C@H](C(=O)O)c3cccc(C)c3)cc2-c2ccc(Cl)c(Cl)c2)cc1` showed a half-life in series [1] of 336 min. This molecule came in with a bioavailability in series [2] of 100%.

As a reminder, the half-life is the time needed for the level to fall by half in the phase considered. Higher therefore signals slow decline. The bioavailability is dose-corrected exposure relative to a reference, in per cent.
